Test results reported in patent publication US12029738B2, “Antiproliferative compounds and methods of use thereof” (Celgene Corporation, priority 2017, dated 2024).
One block for each molecule: values may come before it.

Experiments:
[1] = system: non-selective α1 adrenergic receptor; test: α1 adrenergic receptor radioligand binding ([3H]prazosin); settings: rat cerebral cortex
Protocol: (§1) α1 Adrenergic and Dopamine D2 Receptors. Methods: Binding and functional assays for α1 adrenergic and dopamine D2 receptors were performed by Eurofins Cerep according to their methods.
α1 Adrenergic Receptor. Binding at 10 μM. The binding assay evaluated the affinity of test article for the non-selective α1 adrenergic receptor in rat cerebral cortex. Membrane homogenates of cerebral cortex were incubated in duplicate for 60 minutes at room temperature with 0.25 nM [^3H]prazosin in the absence or presence of test articles at 10 μM. After the incubation period, samples were filtered through glass fiber filters, the filters dried and then counted for radioactivity using a scintillation counter. Results are expressed as mean percent inhibition of control radioligand binding.
Binding IC50. […] Compound A was tested at 0.01-30 μM. […] Compound 1 and Compound 2, the S-enantiomer of Compound 1, were assayed at 0.03-100 μM. Radioactivity was measured as described above. The IC50 was defined as the concentration causing a half-maximum inhibition of control specific binding.

[2] = in vivo; settings: rat
Protocol: 7-Day Exploratory Toxicology Studies in Male Rats. Methods. Male CD-IGS rats (n=5/group for toxicologic assessment; n=4/group for toxicokinetic assessment) were dosed once daily by oral gavage (10 mL/kg) with vehicle (0.5% HPMC/0.25% Tween-80 in 50 mM citrate, pH 2.6-2.8) or test articles (Compound A or Compound 1) at 100, 300 or 1000 mg/kg/day for 7 consecutive days. Blood samples for toxicokinetics were collected on Days 1 and 7. […] Body weight was recorded at randomization, prior to dosing on Days 1-7 and prior to necropsy. Samples for hematology and serum chemistry analyses were collected on Day 8, approximately 24 h after the last dose. Rats were euthanized on Day 8 for necropsy. Anatomic pathology evaluation consisted of gross observation, organ weight and histopathologic examination of select tissues.

[3] = target: T1, α1A adrenergic receptor (Homo sapiens, UniProt P35348); test: α1A adrenergic receptor antagonist assay (calcium mobilization, CHO cells); format: cell-based; settings: epinephrine 3 nM; calcium mobilization; read-out: Antagonism IC50 α1A
T1 construct: host or cells: CHO cells
T1 sequence (P35348 1-466): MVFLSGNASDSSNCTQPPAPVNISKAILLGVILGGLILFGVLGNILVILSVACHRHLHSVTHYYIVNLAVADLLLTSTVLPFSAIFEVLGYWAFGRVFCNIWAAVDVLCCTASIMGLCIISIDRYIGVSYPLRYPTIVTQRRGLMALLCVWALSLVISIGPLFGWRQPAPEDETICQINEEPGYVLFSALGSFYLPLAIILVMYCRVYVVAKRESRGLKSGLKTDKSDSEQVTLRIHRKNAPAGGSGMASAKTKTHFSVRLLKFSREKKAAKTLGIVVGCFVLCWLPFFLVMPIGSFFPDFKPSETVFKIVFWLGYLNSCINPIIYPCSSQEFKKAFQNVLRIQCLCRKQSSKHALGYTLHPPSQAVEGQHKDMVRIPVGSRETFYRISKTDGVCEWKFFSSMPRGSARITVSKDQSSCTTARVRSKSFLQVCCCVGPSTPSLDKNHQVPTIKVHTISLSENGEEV
Protocol: as §1
Antagonist activity. The antagonistic effects of test compounds on the α1A and α1B adrenergic receptors were measured using human receptor-transfected Chinese hamster ovary (CHO) cells. Antagonist activity was determined by measuring compound effect on agonist (epinephrine)-induced calcium mobilization in the α1A receptor assay or cAMP levels in the α1B receptor assay. In these experiments, CHO cells were incubated in duplicate at room temperature with test article and epinephrine at 3 nM in the α1A receptor assays or at 3000 nM in the α1B receptor assay. Compound A was tested in the α1A receptor assay at 0.01-30 μM. […] Compound 1 and Compound 2 were assayed at 0.03 to 30 μM in the α1A receptor assay and 0.03 to 100 μM in the α1B receptor assay. In the α1A receptor assay, cytosolic calcium levels were measured fluorometrically using the fluorescent probe, Fluo4 Direct. Intracellular cAMP levels in the α1B adrenergic receptor assay were measured by homogenous time-resolved fluorescence (HTRF). The antagonism IC50 was defined as the concentration causing a half-maximum inhibition of control agonist response.

[4] = target: T2, dopamine D2S receptor (Homo sapiens, UniProt P14416); test: Dopamine D2S receptor radioligand binding (HEK-293)
T2 construct: host or cells: HEK-293 cells (membrane homogenates)
Protocol: as §1
Dopamine D2 Receptor. Binding at 10 μM. The binding assay evaluated the affinity of test articles for the dopamine D2 receptor in transfected human embryonic kidney (HEK)-293 cells. For determining the binding in the D2S receptor assay, test article was incubated with 0.3 nM [^3H] methylspiperone or 1 nM [^3H] 7-hydroxy-2-N,N-dipropylaminotetralin (7-OH-DPAT). [3H] Methylspiperone at 0.3 nM also was used as control ligand in the D2L binding assay. Cell membrane homogenates were incubated in duplicate at room temperature for 60 minutes with ligand in the absence or presence of test articles at 10 μM. After the incubation period, samples were filtered through glass fiber filters, the filters dried and then counted for radioactivity using a scintillation counter. Results are expressed as mean percent inhibition of control radioligand binding.
Binding IC50. To determine the binding IC50 in the D2 receptor assays, HEK-293 were tested as described above but with varying concentrations of test article. Compound A was tested at 0.01-30 μM in the D2S radioligand binding assay. […] Compound 1 was assayed at 0.03-100 μM in both the D2S and D2L assays, while Compound 2 was tested at 0.03-100 μM in the D2S assay and 0.01-100 μM in the D2L assays. The IC50 was defined as the concentration causing a half-maximum inhibition of control specific binding.

[5] = target: T2, dopamine D2S receptor; test: Dopamine D2S receptor agonist assay (impedance, HEK-293); format: cell-based; settings: impedance; versus dopamine control; read-out: D2S Agonism EC50
Protocol: as §1
Agonist activity. The agonism of test compounds on the dopamine D2S receptor was assessed using human receptor-transfected HEK-293 cells. Agonist activity was determined by measuring compound effect on impedance modulation. In these experiments, HEK-293 cells were incubated in duplicate at 28° C. with test article. Compound A was tested at 0.01-30 μM. […] Dopamine (3 μM) was used as an agonist control. Impedance measurements were monitored for 10 minutes after ligand addition using cellular dielectric spectroscopy. The EC50 was defined as the concentration causing a half-maximum response, compared to the control agonist (dopamine) response.

[6] = system: lenalidomide-resistant NCI-H929 (H929-1051) multiple myeloma/plasmacytoma tumors; test: H929-1051 xenograft, Compound 2 alone and with dexamethasone; format: in vivo, mouse; settings: single agent dexamethasone 0.5 mg/kg oral once daily
[7] = system: neutrophil progenitors (BM CD34+ cells from healthy donors); test: In vitro maturation of neutrophil progenitors, dexamethasone alone and with Compound 2
Protocol: Methods. To understand the effects of dexamethasone on neutropenia, in vitro cultures of BM CD34^+ cells from healthy donors were used to evaluate the neutropenic events mediated by dexamethasone as a single agent and in combination with Compound 2. To define the effects of dexamethasone monotherapy in this model, 1, 10, or 100 nM dexamethasone exposure was maintained for 30 h comparing 7 different dosing schedules (FIG. 11). For combination studies, single exposure Compound 2 (1, 10, or 100 nM) and dexamethasone were maintained for 6 and 30 h, respectively, starting at Day 13 of culture.

[8] = system: multiple myeloma and plasma cell leukemia cell lines (OPM2.P10, RPMI.8226, L363, JJN-3); test: Combination with proteasome inhibitor pulse (flow cytometry, 72 h); format: cell-based, human; settings: L363; 1 h pulse
Protocol: Twenty four hours prior to treatment with a proteasome inhibitor and test compound, an appropriate number of cells were split to a concentration of 0.2×10^6/mL in fresh media to allow for exponential growth. On the day of treatment, compounds were freshly solvated in DMSO. Proteasome inhibitors bortezomib or carfilzomib were diluted and added to pre-warmed culture media at the final working concentrations of 150 nM or 300 nM for bortezomib and 300 nM or 550 nM for carfilzomib. Proteasome inhibitor concentrations were determined based upon clinical Cmax concentrations as well as previous studies in each cell line which determined the duration and concentration of PI required to inhibit a specific amount of β5 proteasome activity. Cells were counted and an appropriate number were placed into media containing proteasome inhibitor and thoroughly mixed. After incubation for 1 h at 37° C., 5% CO2, cells were washed two times with 40 mL of complete media to remove the proteasome inhibitor. […] Plated cells were cultured at 37° C., 5% C02, for the remainder of the experiment, up to 72 h. Every 24 h, proteasome inhibition was monitored by the Cell-Based Proteasome-Glo Assay. Proliferation and apoptosis were measured at 72 h by flow cytometry. Cells were stained with APC Annexin-V and 7-AAD to enumerate the number of viable cells remaining in culture.
An in vitro cell assay was established in order to mimic the clinical pharmacokinetics (PK) and pharmacodynamics (PD) of exposure to proteasome inhibitors bortezomib and carfilzomib.

[9] = system: lenalidomide-resistant NCI-H929 (H929-1051) multiple myeloma/plasmacytoma tumors; test: H929-1051 xenograft, Compound 2 alone and with bortezomib; format: in vivo, mouse

T2 sequence (P14416 1-414 isoform P14416-2): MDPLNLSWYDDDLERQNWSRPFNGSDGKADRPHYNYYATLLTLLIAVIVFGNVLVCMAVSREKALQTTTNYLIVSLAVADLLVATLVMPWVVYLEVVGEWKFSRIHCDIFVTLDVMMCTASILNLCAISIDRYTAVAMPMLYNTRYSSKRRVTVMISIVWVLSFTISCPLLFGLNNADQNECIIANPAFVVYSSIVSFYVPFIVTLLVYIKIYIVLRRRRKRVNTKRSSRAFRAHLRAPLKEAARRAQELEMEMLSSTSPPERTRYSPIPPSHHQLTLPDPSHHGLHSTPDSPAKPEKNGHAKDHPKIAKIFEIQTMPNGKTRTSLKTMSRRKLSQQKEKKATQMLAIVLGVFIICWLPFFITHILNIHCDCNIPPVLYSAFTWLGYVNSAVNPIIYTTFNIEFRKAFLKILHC

Compound: O=C1CCC(N2Cc3c(OCc4ccc(CN5CCN(c6ccc(F)cc6F)CC5)cc4)cccc3C2=O)C(=O)N1 (racemic) [Compound A, 3-(4-((4-((4-(2,4-difluorophenyl)piperazin-1-yl)methyl)benzyl)oxy)-1-oxoisoindolin-2-yl)piperidine-2,6-dione]
Adrenergic α1 (non-selective) % Inhibition (10 μM) ([1]; 10 μM, 0.25 nM [3H]prazosin): 102% | IC50 ([1]; [3H]prazosin): 64 nM | AUC(0-t) ([2]; male, CD-IGS, po, 100 mg/kg/day): 441 µM·h | AUC(0-t) ([2]; male, CD-IGS, po, 300 mg/kg/day): 1230 µM·h | AUC(0-t) ([2]; male, CD-IGS, po, 1000 mg/kg/day): 1760 µM·h | dose at which abnormal stomach content (dry, feed material) was observed grossly ([2]; male, CD-IGS, po, 7 days): ≥ 100 mg/kg | dose at which clinical signs of toxicity (hunched posture, piloerection, decreased activity) and decreased body weight were observed ([2]; male, CD-IGS, po, 7 days): ≥ 300 mg/kg | test article-related microscopic findings [2]: minimal multifocal myocardial necrosis and mixed cell infiltration in hearts of rats at all dose levels | IC50 [3]: 14 nM | IC50 ([4]; read-out: D2S Binding IC50): 150 nM | inhibition at 10 µM ([4]; read-out: Dopamine D2S % Inhibition (10 μM)): 99% | EC50 [5]: 16 nM

maturation of neutrophil progenitors / late-stage neutrophil precursors ([7]; single agent, 1, 10, 100 nM, dexamethasone 30 h, Compound 2 6 h): not affected
Compound: C[C@@H]1C[C@H]2[C@@H]3CCC4=CC(=O)C=C[C@]4(C)[C@@]3(F)[C@@H](O)C[C@]2(C)[C@@]1(O)C(=O)CO [Dexamethasone, dexamethasone]
tumor growth inhibition / tumor volume reduction (TVR) [6]: 20% | viability of immature and mature neutrophils ([7]; alone or in combination): not affected

Compound: CC(C)C[C@H](NC(=O)[C@H](Cc1ccccc1)NC(=O)c1cnccn1)B(O)O [bortezomib]
single agent activity on cell viability [8]: no single agent activity on cell viability | tumor growth inhibition / tumor volume reduction (TVR) ([9]; single agent bortezomib 1 mg/kg iv single dose day 31, day 50): 60% | day by which tumors reached approximately 2000 mm^3 ([9]; single agent, 1 mg/kg): 66 days
